US20240239775A1, “FXR REGULATOR, PREPARATION METHOD THEREFOR, PHARMACEUTICAL COMPOSITION THEREOF AND USE THEREOF” (QINGDAO RUIJI MEDICAL TECHNOLOGY CO., LTD., priority 2021, published 2024)
pIC50: −log10 of the molar value.

Each compound was assayed against T1, FXR (Homo sapiens, UniProt Q96RI1) (assay: FXR antagonist screening by TR-FRET (LanthaScreen TR-FRET FXR co-activation assay kit)). Settings: Table 1.1, FXR antagonistic activity; TR-FRET with CDCA; geometric means of at least two independent runs.
T1 construct: 5 μL of 20 nM FXR-LBD Complete Coregulator buffer G; purchased ThermoFisher PV4833
T1 sequence (Q96RI1 262-486 limits assumed): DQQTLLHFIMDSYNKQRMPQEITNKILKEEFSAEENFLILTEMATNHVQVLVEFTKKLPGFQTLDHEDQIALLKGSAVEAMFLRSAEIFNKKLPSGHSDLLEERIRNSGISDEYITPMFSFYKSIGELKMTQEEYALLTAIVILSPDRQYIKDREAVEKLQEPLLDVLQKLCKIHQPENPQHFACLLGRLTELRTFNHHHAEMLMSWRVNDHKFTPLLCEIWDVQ
Format: biochemical
In short: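 FXR-LBD (20 nM working solution) mixed with compound, CDCA (200 μM working solution) as agonist, Fluorescein-SRC2-2 and Tb-anti-GST antibody in Coregulator buffer G; 10 h at room temperature. Coactivator recruitment read by TR-FRET, triplicate wells.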
Work on `CCOC(=O)c1oc2ccc(S(=O)(=O)N(CCc3ccccc3)Cc3ccc(-c4ccccc4)cc3)cc2c1C` [Example M4-82] yielded a pIC50 of 4.00 to 4.30. Work on `CCOC(=O)c1oc2ccc(S(=O)(=O)N(CCc3ccccc3)Cc3ccc(-c4ccccc4C#N)cc3)cc2c1C` [Example M4-83, ethyl 3-methyl-5-(N-((2′-cyano-[1,1′-biphenyl]-4-yl)methyl)-N-phenethylsulfamoyl)benzofuran-2-carboxylate] yielded a pIC50 of 4.00 to 4.30. `CCOC(=O)c1oc2ccc(S(=O)(=O)N(CCc3ccccc3)Cc3ccc(-c4ccccc4C(=O)OC(C)(C)C)cc3)cc2c1C` [Example M4-84, ethyl 3-methyl-5-(N-((2′-(tert-butoxycarbonyl)-[1,1′-biphenyl]-4-yl)methyl)-N-phenethylsulfamoyl)benzofuran-2-carboxylate] showed a pIC50 of 4.00 to 4.30. Compound `CCOC(=O)c1oc2ccc(S(=O)(=O)N(CCc3ccccc3)Cc3ccc(C(=O)c4ccccc4)cc3)cc2c1C` [Example M4-85, ethyl 3-methyl-5-(N-(4-benzoylbenzyl)-N-phenethylsulfamoyl)benzofuran-2-carboxylate] has a pIC50 of 4.00 to 4.30. Compound `CCOC(=O)c1oc2ccc(S(=O)(=O)N(CCc3ccccc3)c3ccccc3)cc2c1C` [Example M8-10] has a pIC50 of 4.00 to 4.30. Compound `CCOC(=O)c1oc2ccc(S(=O)(=O)N(CCc3ccccc3)c3ccc(Cc4ccccc4)cc3)cc2c1C` [Example M8-11, ethyl 3-methyl-5-(N-(4-benzylphenyl)-N-phenethylsulfamoyl)benzofuran-2-carboxylate] has a pIC50 of 4.00 to 4.30. Work on `CCOC(=O)c1oc2ccc(S(=O)(=O)N(CCc3ccccc3)c3ccc(Oc4ccccc4)cc3)cc2c1C` [Example M8-12, ethyl 3-methyl-5-(N-(4-phenoxyphenyl)-N-phenethylsulfamoyl)benzofuran-2-carboxylate] yielded a pIC50 of 4.00 to 4.30. Work on `CCOC(=O)c1oc2ccc(S(=O)(=O)N(CCc3ccccc3)CCc3ccccc3)cc2c1C` [Example M8-13, ethyl 3-methyl-5-(N,N-diphenylethylsulfamoyl)benzofuran-2-carboxylate] yielded a pIC50 of 4.00 to 4.30. Work on `CCOC(=O)c1oc2ccc(S(=O)(=O)N(CCc3ccccc3)c3ccc(N4CCOCC4)cc3)cc2c1C` [Example M8-63, ethyl 3-methyl-5-(N-(4-morpholinophenyl)-N-phenethylsulfamoyl)benzofuran-2-carboxylate] yielded a pIC50 of 4.00 to 4.30. Compound `CCOC(=O)c1oc2ccc(S(=O)(=O)N(CCc3ccccc3)c3ccc(N4CCN(C)CC4)cc3)cc2c1C` [Example M8-64, ethyl 3-methyl-5-(N-(4-(4-methylpiperazin-1-yl)phenyl)-N-phenethylsulfamoyl)benzofuran-2-carboxylate] has a pIC50 of 4.00 to 4.30. With `CCOC(=O)c1oc2ccc(S(=O)(=O)N(CCc3ccccc3)c3ccc(N4CCN(C(=O)OC(C)(C)C)CC4)cc3)cc2c1C` [Example M8-65, ethyl 3-methyl-5-(N-(4-(4-(tert-butoxycarbonyl)piperazin-1-yl)phenyl)-N-phenethylsulfamoyl)benzofuran-2-carboxylate] the pIC50 was 4.00 to 4.30. `CCOC(=O)c1oc2ccc(S(=O)(=O)N(CCc3ccccc3)c3ccc(N4CCN(C(=O)CC(C)(C)C)CC4)cc3)cc2c1C` [Example M8-66, ethyl 3-methyl-5-(N-(4-(4-(3,3-dimethylbutyryl)piperazin-1-yl)phenyl)-N-phenethylsulfamoyl)benzofuran-2-carboxylate] showed a pIC50 of 4.00 to 4.30. `CCCOC(=O)N1CCN(c2ccc(N(CCc3ccccc3)S(=O)(=O)c3ccc4oc(C(=O)OCC)c(C)c4c3)cc2)CC1` [Example M8-67, ethyl 3-methyl-5-(N-(4-(4-(propoxycarbonyl)piperazin-1-yl)phenyl)-N-phenethylsulfamoyl)benzo furan-2-carboxylate] gave a pIC50 of 4.00 to 4.30. Compound `CCOC(=O)c1oc2ccc(S(=O)(=O)N(CCc3ccccc3)c3ccc(N4CCN(C(C)=O)CC4)cc3)cc2c1C` [Example M8-68, ethyl 3-methyl-5-(N-(4-(4-acetylpiperazin-1-yl)phenyl)-N-phenethylsulfamoyl)benzofuran-2-carboxylate] has a pIC50 of 4.00 to 4.30. With `CCOC(=O)c1oc2ccc(S(=O)(=O)N(CCc3ccccc3)c3ccc(N4CCN(C(=O)c5ccccc5)CC4)cc3)cc2c1C` [Example M8-69, ethyl 3-methyl-5-(N-(4-(4-benzoylpiperazin-1-yl)phenyl)-N-phenethylsulfamoyl)-3-methylbenzofuran-2-carboxylate] the pIC50 was 4.00 to 4.30. Compound `CCOC(=O)c1oc2ccc(S(=O)(=O)N(CCc3ccccc3)c3ccc(N4CCN(Cc5ccccc5)CC4)cc3)cc2c1C` [Example M8-70, ethyl 3-methyl-5-(N-(4-(4-benzylpiperazin-1-yl)phenyl)-N-phenethylsulfamoyl)benzofuran-2-carboxylate] has a pIC50 of 4.00 to 4.30. `CCOC(=O)c1oc2ccc(S(=O)(=O)N(CCc3ccccc3)c3ccc(N4CCN(C(=O)N(C)C)CC4)cc3)cc2c1C` [Example M8-71, ethyl 3-methyl-5-(N-(4-(4-(dimethylcarbamoyl)piperazin-1-yl)phenyl)-N-phenethylsulfamoyl)benzofuran-2-carboxylate] was tested, and the pIC50 was 4.00 to 4.30. `CCOC(=O)c1oc2ccc(S(=O)(=O)N(CCc3ccccc3)c3ccc(N4CCN(S(C)(=O)=O)CC4)cc3)cc2c1C` [Example M8-72, ethyl 3-methyl-5-(N-(4-(4-(methylsulfonyl)piperazin-1-yl)phenyl)-N-phenethylsulfamoyl)benzofuran-2-carboxylate] showed a pIC50 of 4.00 to 4.30. `CCOC(=O)c1oc2ccc(S(=O)(=O)N(CCc3ccccc3)c3ccc(N4CCN(C(=O)OC(C)(C)C)CC4)c(C(F)(F)F)c3)cc2c1C` [Example M8-74, ethyl 3-methyl-5-(N-(4-(4-(tert-butoxycarbonyl)piperazin-1-yl)-3-(trifluoromethyl)phenyl)-N-phenethylsulfamoyl)benzofuran-2-carboxylate] was tested, and the pIC50 was 4.00 to 4.30. Compound `CCOC(=O)c1oc2ccc(S(=O)(=O)N(CCc3ccccc3)c3ccc(N4CCN(C(=O)OC(C)(C)C)CC4)nc3)cc2c1C` [Example M8-75, ethyl 3-methyl-5-(N-(6-(4-(tert-butoxycarbonyl)piperazin-1-yl)pyridin-3-yl)-N-phenethylsulfamoyl)benzofuran-2-carboxylate] has a pIC50 of 4.00 to 4.30. For `CCOC(=O)c1oc2ccc(S(=O)(=O)N(CCc3ccccc3)c3ccc(CN4CCN(C(=O)OC(C)(C)C)CC4)cc3)cc2c1C` [Example M8-76, ethyl 3-methyl-5-(N-(4-((4-(tert-butoxycarbonyl)piperazin-1-yl)methyl)phenyl)-N-phenethylsulfamoyl)benzofuran-2-carboxylate], the pIC50 was 4.00 to 4.30. `CCOC(=O)c1oc2ccc(S(=O)(=O)N(CCc3ccccc3)c3ccccc3N3CCN(C(=O)OC(C)(C)C)CC3)cc2c1C` [Example M8-77, ethyl 3-methyl-5-(N-(2-(4-(tert-butoxycarbonyl)piperazin-1-yl)phenyl)-N-phenethylsulfamoyl)benzofuran-2-carboxylate] gave a pIC50 of 4.00 to 4.30. `CCOC(=O)c1oc2ccc(S(=O)(=O)N(CCc3ccccc3)c3cccc(N4CCN(C)CC4)c3)cc2c1C` [Example M8-78, ethyl 3-methyl-5-(N-(3-(4-methylpiperazin-1-yl)phenyl)-N-phenethylsulfamoyl)benzofuran-2-carboxylate] gave a pIC50 of 4.00 to 4.30. Work on `CCOC(=O)c1oc2ccc(S(=O)(=O)N(CCc3ccccc3)Cc3ccc(N4CCOCC4)cc3)cc2c1C` [Example M8-79, ethyl 3-methyl-5-(N-(4-morpholinobenzyl)-N-phenethylsulfamoyl)benzofuran-2-carboxylate] yielded a pIC50 of 4.00 to 4.30. `CCOC(=O)c1oc2ccc(S(=O)(=O)N(CCc3ccccc3)Cc3ccc(N4CCN(C)CC4)cc3)cc2c1C` [Example M8-80, ethyl 3-methyl-5-(N-(4-(4-methylpiperazin-1-yl)benzyl)-N-phenethylsulfamoyl)benzofuran-2-carboxylate] gave a pIC50 of 4.00 to 4.30. `CCOC(=O)c1oc2ccc(S(=O)(=O)N(CCc3ccccc3)Cc3ccc(N4CCN(C(=O)OC(C)(C)C)CC4)cc3)cc2c1C` [Example M8-81, ethyl 3-methyl-5-(N-(4-(4-(tert-butoxycarbonyl)piperazin-1-yl)benzyl)-N-phenethylsulfamoyl)benzofuran-2-carboxylate] gave a pIC50 of 4.00 to 4.30. `CCOC(=O)c1oc2ccc(S(=O)(=O)N(CCc3ccccc3)Cc3ccc(Oc4ccccc4)cc3)cc2c1C` [Example M8-86, ethyl 3-methyl-5-(N-phenethyl-N-(4-phenoxybenzyl)sulfamoyl)benzofuran-2-carboxylate] was tested, and the pIC50 was 4.00 to 4.30. For `CCOC(=O)c1oc2ccc(S(=O)(=O)N(CCc3ccccc3)Cc3ccccc3N3CCN(C(=O)OC(C)(C)C)CC3)cc2c1C` [Example M8-87, ethyl 3-methyl-5-(N-(2-(4-(tert-butoxycarbonyl)piperazin-1-yl)benzyl)-N-phenethylsulfamoyl)benzofuran-2-carboxylate], the pIC50 was 4.00 to 4.30. Work on `CCOC(=O)c1oc2ccc(S(=O)(=O)N(CCc3ccccc3)Cc3cccc(N4CCN(C(=O)OC(C)(C)C)CC4)c3)cc2c1C` [Example M8-88, ethyl 3-methyl-5-(N-(3-(4-(tert-butoxycarbonyl)piperazin-1-yl)benzyl)-N-phenethylsulfamoyl)benzofuran-2-carboxylate] yielded a pIC50 of 4.00 to 4.30. `CCOC(=O)c1oc2ccc(S(=O)(=O)N(CCc3ccccc3)c3ccccc3N3CCNCC3)cc2c1C` [Example M9-1, ethyl 3-methyl-5-(N-phenethyl-N-(2-(piperazin-1-yl)phenyl)sulfamoyl)benzofuran-2-carboxylate] was tested, and the pIC50 was 4.00 to 4.30. In the case of `CCOC(=O)c1oc2ccc(S(=O)(=O)N(CCc3ccccc3)Cc3ccccc3N3CCNCC3)cc2c1C` [Example M9-2, ethyl 3-methyl-5-(N-phenethyl-N-(2-(piperazin-1-yl)benzyl)sulfamoyl)benzofuran-2-carboxylate], the pIC50 was 4.00 to 4.30.
